# Test results from paper PMC12389442, “Towards a Consensus for the Analysis and Exchange of TFA as a Counterion in Synthetic Peptides and Its Influence on Membrane Permeation” (Pharmaceuticals, 2025).
# Columns and labels:
# [1] = not told
# Description: (§1) To investigate the influence of TFA^− and Cl^− as counterions on the membrane permeation of synthetic peptides, a liposomal fluorescence assay was performed as previously described [37, 38]. The assay relies on the change in fluorescence of HPTS correlating to the liposomal internal pH change altered by permeation of an acidic or basic compound across the phospholipid bilayer. […] We first evaluated the impact of counterions on the permeation kinetics of the CPPs. Fitted biexponential curves and calculated log Permapp values are shown if the obtained normalized RMSE was <0.10. […] Control experiments with TFA and HCl are also shown for reference. […] To complement the CPP study, we also investigated peptides AT 1–4 in the permeation assay.
# (§2) To investigate the influence of the counterions on the membrane permeability of peptides, a liposomal fluorescence assay was performed using a previously described method adapted to a plate reader [37, 38].
# [2] = direct pH measurement of aqueous peptide salt solutions; format: physicochemical; conditions: before exchange (TFA salt), about 2–2.4 mg/mL peptide salt
# From the text: Direct pH measurements of aqueous solutions of peptides present as TFA, as well as Cl salts, were acidic in a pH range below 3 (exact values can be found in the Supporting Information). […] Strong counterions as Cl^− and TFA^− may shield the positive charges and hydrogen bond donors, facilitating permeation as a net neutral complex. The complex then dissociates in the unbuffered internal liposomal phase, into a weak base (peptide) and a strong acid (HCl or TFA), resulting in the release of protons leading to acidification and a decrease in fluorescence. This assumption would align with the concept of hydrophobic ion pairing, described to enhance the membrane permeability of charged molecules in drug delivery. Our findings confirm results of previous studies that counterions cannot be neglected and the salt form might affect the membrane permeation behavior of peptides, among other things. Given that counterions are often unreported in the literature, we herein emphasize the need for explicit consideration and clarification in peptide-based permeation assays and further functional studies.
# Table S8: pH measurements of AT1-4 peptide salt in aq. solution after exchange and lyophilization
# Before Conc. peptide 2.38 2.38
# [3] = counterion (TFA−, Cl−, Na+) content of peptide salt by HPLC-ELSD during HCl exchange; format: physicochemical
# Description: The TFA^− content in samples was quantified using three analytical methods, namely FT-IR, ^19F-NMR, and HPLC-ELSD, adapted from previous publications. The methods are described in detail in the Supplementary Materials Section S2. In short, FT-IR spectra were recorded in aqueous solution at a wavelength from 4000 cm^−1 to 600 cm^−1 (PerkinElmer Inc., Waltham, MA, USA). The absorbance maxima in the TFA^− absorbance range of 1210 to 1190 cm^−1 were determined using Python (3.10.10, https://docs.python.org/3/reference (accessed 22 April 2024)). The ^19F-NMR (Bruker Avance III 400 MHz NMR spectrometer, Bremen, Germany) measurements were performed in 10% deuterium oxide (D2O; >99.9 atom% D, Apollo Scientific, Bredbury, United Kingdom) in H2O (nanopure water, in-house water purification system ELGA Purelab, Villmergen, Switzerland) and the signal areas were determined via auto-integration. The HPLC-ELSD (VWR ELITE Lachrome Series, Dietikon, Switzerland) method was used under isocratic conditions with a mobile phase consisting of 40% 20 mM ammonium formate (≥99%, Sigma Aldrich, Buchs, Switzerland) in H2O (pH 4.0) and 60% acetonitrile (ACN; HPLC gradient grade, ≥99.9%, Sigma Aldrich, Buchs, Switzerland). Separation was achieved on an Acclaim Trinity P1 column (3 mm × 100 mm, Thermo Fisher Scientific, Sunnyvale, CA, USA) allowing for the simultaneous detection of TFA^−, Cl^−, and Na^+. Retention times were determined by single injection of analytes and quantification performed via peak area. All analytical methods were validated according to the ICH guidelines. For each analysis method, calibrators with concentrations in the corresponding quantitative range for TFA^− (additionally, Na^+ and Cl^− for HPLC-ELSD) were prepared and aliquoted for each validation day (4 days for FT-IR and ^19F-NMR, 8 days for HPLC-ELSD). Quality control (QC) samples (QC low, med, and high) were prepared independently. All aliquots were stored at 5 °C. Over a period of 7 (FT-IR and ^19F-NMR) or 21 days (HPLC-ELSD), daily regression curves were determined using the generalized least squares regression model. For the ^19F-NMR and FT-IR method, a linear model was used, and for the HPLC-ELSD method a polynomial model. Weightings of x, 1/x, and 1/x^2 were considered for the calibration curves. The accuracy was determined by comparing the established concentration of the QC sample concentration and the theoretical concentration. Bias and intra- and inter-day precision (RSDR and RSDT) were calculated according to Peters et al.. […] The limit of detection (LoD) and limit of quantification (LoQ) for the FT-IR and ^19F-NMR methods were calculated according following ICH guidelines based on the standard deviation of the response and slope. As a quadratic regression curve was determined for the HPLC-ELSD method, LoD and LoQ were determined using the signal-to-noise approach. To assess the stability of the calibration curve, the concentration of the QCs for each day was recalculated with the calibration curve established on the first day and the bias was determined by comparison with the theoretical value calculated.
# For the counterion exchange of TFA^− with Cl^−, the peptide salt was dissolved in a diluted aqueous HCl solution at a concentration of 1 mg/ml. […] To evaluate the influence of the peptide sequence, counterion exchange was also performed for AT 2, AT 3, and AT 4 with the optimally determined salt concentration of 10 mM. […]
# [4] = peptide integrity during counterion exchange with aq. HCl, HPLC-UV; format: physicochemical
# Description: As degradation issues in aqueous acidic solutions have been reported previously, the integrity of AT 1 during counterion exchange with the different concentrations of HCl was measured with HPLC-UV. […] Similar results could be found for all other peptides under investigation (Supplementary Materials Section S3). […] Nevertheless, the stability of the peptide as well as the counterion exchange efficacy may vary, depending on the peptide sequence. Therefore, the TFA^− content as well as the purity should always be confirmed after counterion exchange.
# For the counterion exchange of TFA^− with Cl^−, the peptide salt was dissolved in a diluted aqueous HCl solution at a concentration of 1 mg/ml. […] To evaluate the influence of the peptide sequence, counterion exchange was also performed for AT 2, AT 3, and AT 4 with the optimally determined salt concentration of 10 mM. […] For all peptide samples, the content of counterions was measured by FT-IR, ^19F-NMR, and HPLC-ELSD before the exchange as well as after each lyophilization cycle (Ex 0, Ex 1, Ex 2, and Ex 3). […] HPLC-ELSD samples containing 0.75 mg/mL peptide salt in H2O were measured in triplicate with an injection volume of 5 and 20 µL. The purity of the samples was monitored during the counterion exchange with a 0.25 mg/mL peptide salt solution according to the purity method described below. […]
# [5] = at the concentrations used in the liposomal assay; cited from earlier work
# [6] = cited from earlier work
# [7] = liposomal fluorescence assay (HPTS) for passive membrane permeation
# Description: as §1, §2
molecule,measurement,setting,value
"CC[C@H](C)[C@H](NC(=O)[C@H](CCCCN)NC(=O)[C@@H](NC(=O)[C@H](CCC(N)=O)NC(=O)[C@@H](N)CCCNC(=N)N)[C@@H](C)CC)C(=O)N[C@@H](Cc1c[nH]c2ccccc12)C(=O)N[C@@H](Cc1ccccc1)C(=O)N[C@@H](CCC(N)=O)C(=O)N[C@@H](CC(N)=O)C(=O)N[C@@H](CCCNC(=N)N)C(=O)N[C@@H](CCCNC(=N)N)C(=O)N[C@@H](CCSC)C(=O)N[C@@H](CCCCN)C(=O)N[C@@H](Cc1c[nH]c2ccccc12)C(=O)N[C@@H](CCCCN)C(=O)N[C@@H](CCCCN)C(N)=O [AntP, H2N-RQIKIWFQNRRMKWKK-CONH2]",influence of type of counterion on passive permeation,[1],unaffected by the type of counterion
same,permeation kinetics / fluorescence change (qualitative),[1],biexponential kinetics were observed
"H2N-DRVYIHPF-COOH (H-DRVYIHPF-OH) [AT 2, angiotensin peptide synthesized by SPPS]",pH of peptide salt in aq. solution,[2],2.63
"H2N-DRVYIHPFHL-COOH (H-DRVYIHPFHL-OH) [AT 1, angiotensin model peptide synthesized by SPPS]",Cl− content relative to expected value based on stoichiometric exchange,"[3]; 10 mM HCl, single cycle",99.0%
same,TFA− content of peptide salt,"[3]; after one exchange cycle with 10 and 100 mM HCl, below LoQ of all techniques",below 1 % (w/w)
same,TFA− content of peptide salt,"[3]; after purification, before exchange, HPLC-ELSD",0.333 ± 0.008 mg TFA^− per mg peptide salt
same,TFA− content of peptide salt,"[3]; control 0 mM HCl, after three exchange cycles",0.215 ± 0.023 mg TFA^− per mg peptide salt
same,Cl− content of peptide salt,"[3]; exchanged with 10 mM HCl, after a single cycle",0.098 mg per 1 mg peptide salt
same,degradation products during counterion exchange,[4]; HCl up to 100 mM,No degradation products were observed
same,purity during counterion exchange (stability in aq. HCl),"[4]; all HCl concentrations (0–100 mM), over three exchange cycles",above 96%
same,pH of peptide salt in aq. solution,[2],2.59
H2N-RVYIHPF-COOH [AT 3],pH of peptide salt in aq. solution,[2],2.63
H2N-VYIHPF-COOH [AT 4],pH of peptide salt in aq. solution,[2],2.39
H-KETWWETWWTEWSQPKKKRKV-OH [Pep1],influence of type of counterion on passive permeation,[1],"influence the amplitude of the permeation curve, although the overall log Permapp remained similar"
same,permeation kinetics / fluorescence change (qualitative),[1],biexponential kinetics were observed
"H-LLIILRRRIRKQAHAHSK-OH [pVEC, H2N-LLIILRRRIRKQAHAHSK-COOH]",POPC membrane disruption,[5],no POPC membrane disruption was observed
same,hemolytic activity,[6],general hemolytic activity is described
same,passive membrane permeation (qualitative),[7]; Cl salt,did not detect permeation
same,passive membrane permeation (qualitative),[7]; TFA salt,showed passive permeation
same,Log Permapp,"[7]; TFA salt, 50 µM peptide solution added to liposomes, outer phase pH 6.0, 28.5 °C, ± standard error of the fit, n = 3",-6.913 ± 0.048 cm/s
